From patent US12570666B2, “Furoindazole derivatives” (Bayer Aktiengesellschaft, priority 2019, dated 2026)

Target: T1, human GPR84 receptor (Homo sapiens, UniProt Q9NQS5)
T1 construct: frozen aliquots prepared by acCELLerate; host or cells: CHO-K1
Assay: cAMP HTRF assay for identification of cellular GPR84 antagonists
Type: cell-based
Conditions: CHO-K1 cells stably expressing human GPR84; Forskolin + agonist 6-OAU (EC80); average or median values
Procedure, shortened: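 IC50 came from 4-parameter fits over 20 μM–0.07 nM (11 points, duplicate), normalized between DMSO (0%) and agonist-free (100% inhibition) wells. Readout: cAMP-d2/Eu-cryptate HTRF in hGPR84 CHO-K1 cells given forskolin plus agonist, compound preincubated 30 min at room temperature.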

T1 sequence (Q9NQS5 whole entry): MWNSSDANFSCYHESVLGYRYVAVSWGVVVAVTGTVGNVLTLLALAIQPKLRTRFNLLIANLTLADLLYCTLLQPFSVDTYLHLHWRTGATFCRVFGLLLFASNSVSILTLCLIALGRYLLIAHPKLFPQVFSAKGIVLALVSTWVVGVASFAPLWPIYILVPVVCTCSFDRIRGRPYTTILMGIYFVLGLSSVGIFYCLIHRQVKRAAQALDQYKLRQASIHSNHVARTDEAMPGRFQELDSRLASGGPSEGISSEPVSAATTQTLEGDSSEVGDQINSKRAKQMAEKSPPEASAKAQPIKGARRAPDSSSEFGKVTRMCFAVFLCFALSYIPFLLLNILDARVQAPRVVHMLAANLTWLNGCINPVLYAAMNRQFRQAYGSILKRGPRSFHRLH

Compound `Cc1c(C(=O)NCCN2CC(C)(C)C2=O)oc2c1-c1nn(Cc3ccccn3)cc1CC2` [Example 28, N-[2-(3,3-dimethyl-2-oxoazetidin-1-yl)ethyl]-8-methyl-2-(pyridin-2-ylmethyl)-4,5-dihydro-2H-furo[2,3-g]indazole-7-carboxamide] has an IC50 of 4570 nM.
`Cc1c(C(=O)NC[C@@H]2COCCO2)oc2c1-c1nn(CC3COC3)cc1CC2` [Example 92, N-[(2R)-1,4-dioxan-2-ylmethyl]-8-methyl-2-(oxetan-3-ylmethyl)-4,5-dihydro-2H-furo[2,3-g]indazole-7-carboxamide] showed an IC50 of 130 nM.
In the case of `Cc1cccc(CNC(=O)c2oc3c(c2C(F)(F)F)-c2nn(C[C@H]4COCCO4)cc2CC3)n1` [Example 238, 2-[(2S)-1,4-Dioxan-2-ylmethyl]-N-[(6-methylpyridin-2-yl)methyl]-8-(trifluormethyl)-4,5-dihydro-2H-furo[2,3-g]indazol-7-carboxamide], the IC50 is reported as 500 nM.
`Cc1c(C(=O)NC[C@@H]2COCCO2)oc2c1-c1nn(CC3CC3)cc1C1(CC1)C2` [Example 131, 2′-(cyclopropylmethyl)-N-[(2R)-1,4-dioxan-2-ylmethyl]-8′-methyl-2′,5′-dihydrospiro[cyclopropane-1,4′-furo[2,3-g]indazole]-7′-carboxamide] gave an IC50 of 35 nM.
`Cc1c(C(=O)NC[C@@H]2COCCO2)oc2c1-c1nn(CC3(C)COC3)cc1CC2` [Example 94, N-[(2R)-1,4-dioxan-2-ylmethyl]-8-methyl-2-[(3-methyloxetan-3-yl)methyl]-4,5-dihydro-2H-furo[2,3-g]indazole-7-carboxamide] was tested, and the IC50 was 21 nM.
Compound `CCC(=O)C(=O)N1CCC(Cn2cc3c(n2)-c2c(oc(C(=O)NC[C@@H]4CCCO4)c2C(F)(F)F)C[C@H]3C)CC1` (single isomer, unassigned) [Example 297, (4R or 4S)-4-methyl-2-{[1-(2-oxobutanoyl)piperidin-4-yl]methyl}-N-{[(2S)-oxolan-2-yl]methyl}-8-(trifluoromethyl)-4,5-dihydro-2H-furo[2,3-g]indazole-7-carboxamide] has an IC50 of 13 nM.
`O=C(NC[C@@H]1CCCO1)c1oc2c(c1C1CC1)-c1nn(C[C@H]3COCCO3)cc1CC2` [Example 194] gave an IC50 of 30 nM.
In the case of `Cc1c(C(=O)NC[C@H]2CCCO2)oc2c1-c1nn(Cc3ccccn3)cc1CC2` [Example 3-1, 8-methyl-2-(pyridin-2-ylmethyl)-N-[(2R)-tetrahydrofuran-2-ylmethyl]-4,5-dihydro-2H-furo[2,3-g]indazole-7-carboxamide], the IC50 is reported as 1160 nM.
`Cc1c(C(=O)NCc2cc(C(C)C)on2)oc2c1-c1nn(Cc3ccccn3)cc1CC2` [Example 18, N-[(5-isopropyl-1,2-oxazol-3-yl)methyl]-8-methyl-2-(pyridin-2-ylmethyl)-4,5-dihydro-2H-furo[2,3-g]indazole-7-carboxamide] was tested, and the IC50 was 97 nM.
Compound `Cc1c(C(=O)NC[C@@H]2COCCO2)oc2c1-c1nn(Cc3noc(C4CC4)n3)cc1CC2` [Example 138] has an IC50 of 43 nM.
Compound `O=C(NC[C@@H]1CCCO1)c1oc2c(c1C(F)(F)F)-c1nn(C[C@H]3COCCO3)cc1C1(CCC1)C2` [Example 271, 2′-[(2S)-1,4-dioxan-2-ylmethyl]-N-[(2S)-tetrahydrofuran-2-ylmethyl]-8′-(trifluormethyl)-2′,5′-dihydrospiro[cyclobutan-1,4′-furo[2,3-g]indazol]-7′-carboxamide] has an IC50 of 26 nM.
`Cc1c(C(=O)NCC2CC(C)CO2)oc2c1-c1nn(Cc3ccccn3)cc1CC2` (mixture of isomers) [Example 175] gave an IC50 of 61 nM.
With `Cc1cccc(Cn2cc3c(n2)-c2c(oc(C(=O)NCCN4CCCC4)c2C)CC3)n1` [Example 69, 8-methyl-2-[(6-methylpyridin-2-yl)methyl]-N-[2-(pyrrolidin-1-yl)ethyl]-4,5-dihydro-2H-furo[2,3-g]indazole-7-carboxamide] the IC50 was 750 nM.
In the case of `CC1Cc2oc(C(=O)NC[C@@H]3COCCO3)c(C(F)(F)F)c2-c2nn(Cc3ccccn3)cc21` (mixture of isomers) [Example 250, (4±)-N-{[(2R)-1,4-dioxan-2-yl]methyl}-4-methyl-2-[(pyridin-2-yl)methyl]-8-(trifluoromethyl)-4,5-dihydro-2H-furo[2,3-g]indazole-7-carboxamide], the IC50 is reported as 17 nM.
`O=C(NC[C@@H]1COCCO1)c1oc2c(c1C(F)(F)F)-c1nn(C[C@H]3COCCO3)cc1C1(CC1)C2` [Example 169, N-{[(2R)-1,4-dioxan-2-yl]methyl}-2′-{[(2S)-1,4-dioxan-2-yl]methyl}-8′-(trifluoromethyl)-2′,5′-dihydrospiro[cyclopropane-1,4′-furo[2,3-g]indazole]-7′-carboxamide] gave an IC50 of 13 nM.
`Cc1c(C(=O)NCC2CN(C)CCO2)oc2c1-c1nn(Cc3ccccn3)cc1CC2` (single isomer, unassigned) [Example 38-1] gave an IC50 of 1420 nM.
In the case of `CC1CCC(CNC(=O)c2oc3c(c2C(F)(F)F)-c2nn(CC4COCCO4)cc2CC3)O1` (single isomer, unassigned) [Example 224-2, 2-{[(2S)-1,4-dioxan-2-yl]methyl}-N-{[(2S or 2R,5S or 5R)-5-methyloxolan-2-yl]methyl}-8-(trifluoromethyl)-4,5-dihydro-2H-furo[2,3-g]indazole-7-carboxamide], the IC50 is reported as 154 nM.
With `C[C@@H]1Cc2oc(C(=O)NC[C@@H]3COCCO3)c(C(F)(F)F)c2-c2nn(CC3CCOCC3)cc21` (single isomer, unassigned) [Example 263, (4R or 4S)-N-{[(2R)-1,4-dioxan-2-yl]methyl}-4-methyl-2-[(oxan-4-yl)methyl]-8-(trifluoromethyl)-4,5-dihydro-2H-furo[2,3-g]indazole-7-carboxamide] the IC50 was 13 nM.
With `Cc1c(C(=O)NCCc2ccccc2)oc2c1-c1nn(Cc3ccccn3)cc1CC2` [Example 42, 8-methyl-N-(2-phenylethyl)-2-(pyridin-2-ylmethyl)-4,5-dihydro-2H-furo[2,3-g]indazole-7-carboxamide] the IC50 was 1530 nM.
For `Cc1c(C(=O)NC[C@@H]2COCCO2)oc2c1-c1nn(Cc3ccc(C(=O)NC[C@@H]4COCCO4)nc3)cc1CC2` [Example 147, N-[(2R)-1,4-dioxan-2-ylmethyl]-2-[(6-{[(2R)-1,4-dioxan-2-ylmethyl]carbamoyl}pyridin-3-yl)methyl]-8-methyl-4,5-dihydro-2H-furo[2,3-g]indazole-7-carboxamide], the IC50 was 130 nM.
In the case of `Cc1c(C(=O)NC[C@@H]2COCCO2)oc2c1-c1nn(CC3CNC3)cc1CC2` [Example 159, 2-(azetidin-3-ylmethyl)-N-[(2R)-1,4-dioxan-2-ylmethyl]-8-methyl-4,5-dihydro-2H-furo[2,3-g]indazole-7-carboxamide], the IC50 is reported as 1960 nM.
`Cc1c(C(=O)NCC2CCCO2)oc2c1-c1nn(CC3COc4ncccc4O3)cc1CC2` (single isomer, unassigned) [Example 52-1] was tested, and the IC50 was 95 nM.
For `Cc1cccc(Cn2cc3c(n2)-c2c(oc(C(=O)NCC4CCCO4)c2C)CC3)n1` (single isomer, unassigned) [Example 66-2], the IC50 was 660 nM.
`Cc1c(C(=O)NCC2CN(C)CCO2)oc2c1-c1nn(Cc3ccccn3)cc1CC2` (single isomer, unassigned) [Example 38-2] was tested, and the IC50 was 3520 nM.
Compound `Cc1cccc(Cn2cc3c(n2)-c2c(oc(C(=O)NCC4COc5ncccc5O4)c2C)CC3)n1` (racemic) [Example 70, N-[(2R/S)-2,3-dihydro[1,4]dioxino[2,3-b]pyridin-2-ylmethyl]-8-methyl-2-[(6-methylpyridin-2-yl)methyl]-4,5-dihydro-2H-furo[2,3-g]indazole-7-carboxamide] has an IC50 of 77 nM.
